According to patent US5547951A, “Pyrido[2,3-b][1,4]benzoxazepin (and thiazepin)-6(5H)-ones and -thiones and their use in the prevention or treatment of HIV-1 infection” (Boehringer Ingelheim Pharamceuticals, Inc., priority 1994, dated 1996):
In brackets after ≈: the same amount, converted by molar mass.

Experiments:
[1] = biological target: T1, HIV-1 reverse transcriptase (Human immunodeficiency virus type 1 group M subtype B, UniProt P03367); assay: Reverse Transcriptase (RT) Assay: inhibition of RNA-dependent DNA polymerase activity, cell-free, poly r(C)/oligo d(G) template, 3H-dGTP substrate; format: biochemical, Human Immunodeficiency Virus (HIV-1), LAV strain; settings: @ 10 μg/ml; room temperature, 60 minutes
T1 construct: Reverse transcriptase enzyme from the LAV strain; made in house; host or cells: E. coli JM109, DNA clone pBRTprtl+ in expression vector pIBI21 (lac promoter)
From the text: Utilizing the Reverse Transcriptase (RT) Assay described below, compounds can be tested for their ability to inhibit the RNA-dependent DNA polymerase activity of HIV RT. Certain specific compounds, described in the Examples which appear below, were so tested. […]
Among the enzymes for which Human Immunodeficiency Virus (HIV-1) encodes is a reverse transcriptase (1), so-named because it transcribes a DNA copy from an RNA template. This activity can be quantitatively measured in a cell-free enzyme assay which has been previously described (2), and is based upon the observation that reverse transcriptase is able to use a synthetic template [poly r(C) primed with oligo d(G)] to transcribe a radio-labelled, acidprecipitable DNA strand utilizing ^3 3H-dGTP as a substrate. […]
a) Preparation of the enzyme
Reverse transcriptase enzyme from the LAV strain of Human Immuno- deficiency Virus (HIV-1) (1) was isolated from the bacterial strain JM109 (3) expressing the DNA clone pBRTprtl+ (2) which is under the control of the lac promotor in the expression vector pIBI21 (4). An overnight culture grown in 2XYT medium (37° C., 225 rpm) (5) supplemented with 100 μg/ml ampicillin for positive selection is inoculated at a 1:40 dilution into M9 medium supplemented with 10μg/ml thiamine, 0.5% casamino acids, and 50 μg/ml ampicillin (5). The culture is incubated (37° C., 225 rpm) until it reaches an 0D540 of 0.3-0.4. At that time the repressor inhibitor IPTG (isopropyl b-D-thiogalactopyranoside) is added to 0.5 mM and incubated for 2 additional hours. Bacteria are pelletted, resuspended in a 50mM Tris, 0.6mM EDTA, 0.375 M NaGl buffer and digested by the addition of lysozyme (1 mg/ml) for 30 minutes on ice. The cells are lysed by the addition to 0.2% NP-40 and brought to 1 M NAGl.
After removal of the insoluble debris by centrifugation, the protein is precipitated by the addition of 3 volumes of saturated aqueous ammonium sulfate. The enzyme is pelleted, resuspended in RT buffer (50 mM Tris pH 7.5, 1 mM EDTA, 5mM DTT, 0.1% NP-40, 0.1M NaCl, and 50% glycerol) and stored at -70° C. for further use. […]
b) Composition of 2X concentrated stock reaction mixture
The 2X concentrated stock reaction mixture is aliquoted and stored at -20° C. The mixture is stable and thawed for use in each assay. This enzyme assay has been adapted to a 96 well microtiter plate system, and has been previously described (6). Tris buffer (50 mM, pH 7.4), vehicle (solvent diluted to match the compound dilution), or compounds in vehicle are dispensed into 96-well microtiter plates (10 μl/well; 3 wells/compound). The HIV RT enzyme is thawed, diluted in 50 mM Tris pH 7.4 so that fifteen μl of diluted enzyme contain 0.001 Unit (one unit is that amount of enzyme to transform 1 micromole of substrate per minute at 25° C.), and 15 μ are dispensed per well. Twenty μl of 0.12-0.5M EDTA are added to the first three wells of the microtiter plate. EDTA thelares the Mg^++ present and prevents reverse transcription. This group serves as background polymerization which is subtracted from all other groups. Twenty-five μl of the 2X reaction mixture are added to all wells and the assay is allowed to incubate at room temperature for 60 minutes. The assay is terminated by precipitating the DNA in each well with 50 μl of 10% trichloracetic acid (TCA) in 1% sodium pyrophosphate. The microtiter plate is incubated for 15 minutes at 4° C. and the precipitate is fixed onto #30 glass fiber paper (Schletcher & Schuell) using a Skatron semi- automatic harvester. The filters are then washed with additional 5% TCA containing 1% sodium pyrophosphate, rinsed with 70% aqueous ethanol, dried, and transferred to scintillation vials (6). Each vial receives 2 mls of scintillation cocktail and is counted in a Beckman beta counter.
Calculations for percent inhibition are as follows [formula] References

[2] = MTT assay for cellular cytotoxicity; format: cell-based; settings: human, H9 cells, five days, read-out: Cytotoxity Assay EC50
Procedure: In order to roughly assess the cytotoxicity of the compounds of formula I, several were tested in the MTT Cellular Cytotoxicity Assay described below. Compounds having a relatively high EC50 are preferred.
MTT ASSAY FOR CELLULAR CYTOTOXICITY
The MTT [3-(4,5-dimethylthiazol-2yl)-2,5 diphenyl tetrazolium bromide) assay is based on cleavage of tetrazolium bromide by metabolically active cells, resulting in a highly quantitative blue color. This assay has been previously described (1) but has been optimized for the purposes of the testing reported herein.
The H9 cell line (2), an established human lymphoma suspension cell line grown in RPMI 1640 supplemented with 10% fetal bovine serum is used as the target cell line in the assay. Cells (100μl) are plated in microtest plate wells at a concentration of 10^5 cells per ml in the presence of varying concentrations of inhibitor. The cells are incubated at 37° C in a humidified CO2 incubator. Five days later, 20 μl of MTT (5 mg/ml in RPMI 1640, sonicated, 0.2 micron filtered, and stored at 4° C.) is added to each well. After 4 hours additional incubation at 37° 60 μl of Triton-X is added to each well and thoroughly mixed to aid the solubiltzation of the crystals. Absolute ethanol (5μ) is added to remove bubbles, and the mixture is incubated for 30 minutes at 60° C. and immediately read on a plate reader (Dynatech) at a wavelength of 570 nm. […]

Structure (SMILES)	inhibition at 10 µg/mL [1] [%]	CC50 at 120 h [2] [µg/mL]
CCN1C(=O)c2cccc(C)c2Oc2ncccc21 [Example 5, 5-Ethyl-10-methylpyrido[2,3-b][1,4]benzoxazepin-6(5H)-one]	83	–
CN1C(=O)c2ccccc2Oc2ncccc21 [Example 3, 5-Methylpyrido[2,3-b][1,4]benzoxzepin-6(5H)-one]	30	–
C=C(Cl)CN1C(=O)c2ccccc2Oc2ncccc21 [Example 7, 5-(2-Chloro-2-propen-1-yl)pyrido[2,3-b][1,4]benzoxazepin-6(5H)-one]	66	–
CCC(C)N1C(=O)c2ccccc2Oc2ncccc21 (stereo not shown) [Example 4, 5-Sec-butylpyrido[2,3-b][1,4]benzoxazepin-6(5H) -one]	50	–
CC=CCN1C(=O)c2ccccc2Oc2ncccc21 [Example 9, 5-(2-Buten-1-yl)pyrido[2,3-b][1,4]benzoxazepin-6(5H) -one]	39	–
CSCCN1C(=O)c2ccccc2Oc2nc(Cl)ccc21 [Example 1, 2-Chloro-5-(methylthioethyl)pyrido[2,3-b][1,4]benzoxazepin-6(5H)-one]	99	20 (≈ 62.3 µM)
C=CCN1C(=O)c2ccccc2Oc2nc(Cl)ccc21 [Example 2, 5-Allyl-2-chloropyrido[2,3-b][1,4]benzoxazepin-6(5H)-one]	96	–
C=CCN1C(=O)c2cccc(C)c2Oc2ncccc21 [Example 10, 5-Allyl-10-methylpyrido[2,3-b][1,4]benzoxazepin-6(5H)-one]	84	–
CCN1C(=O)c2ccc(C)cc2Oc2ncccc21 [Example 11, 5-Ethyl-9-methylpyrido[2,3-b][1,4]benzoxazepin-6(5H)-one]	30	–
CN1C(=O)c2cc(N)ccc2Oc2ncccc21 [Example 6, 8-Amino-5-methylpyrido[2,3-b][1,4]benzoxazepin-6(5H)-one]	50	–
C=C(C)CN1C(=O)c2ccccc2Oc2ncccc21 [Example 8, 5-(2-Methyl-2-propen-1-yl)pyrido[2,3-b][1,4]benzoxazepin-6(5H)-one]	47	–
CCC(=O)N1C(=O)c2cc(C)ccc2Oc2ncccc21 [Example 12, 8-Methyl-5-propionylpyrido[2,3-b][1,4]benzoxazepin-6(5H)-one]	49	–
